Results from US10118943B2, “Compounds and methods for inhibiting cell death” (Ramot at Tel-Aviv University Ltd., priority 2012, dated 2018).
Entries after “also recorded” stand apart in the source; their conditions may differ.

Tests used:
PC12 cells [1] = settings: ZnCl2 400 μM, increasing concentrations of peptide
PC12 cells [2] = test: PC12 cell survival assay, zinc toxicity, MTS (Example 1); settings: 400 μM zinc, 4 hrs, peptide 10^−9M
Method: PC12 cells (Pheochromocytoma cells) (ATCC, Bethesda, Md., USA) were seeded at 3×10^4 cells/cm^2 on poly-L-Lysine coated plastic tissue culture dishes (Corning, Lowell, Mass., USA) to form an adherent monolayer. Cells were maintained in Dulbecco's modified Eagle's medium (DMEM) supplemented with 10% horse serum (HS), 5% fetal calf serum (FCS), 2 mM glutamine, 100 U/ml penicillin and […] streptomycin (Biological Industries, Beit Haemek, Israel). PC12 differentiation was induced by nerve growth factor (NGF, Sigma) at concentrations of 50 ng/ml by replacing half of the medium every other day until the cells acquired a differentiated morphology. Differentiated cells were defined as bearing two or more neurites with lengths equal to or more than twice the diameter of the cell body (P. Lamoureux et al., The Journal of cell biology 110, 71 (January, 1990)). The cells were incubated in 5% CO2 in a humidified incubator at 37° C. The cells were sub-cultured every 5 days at a 4:1 split ratio by pipetting. The medium was changed every 2 or 3 days after adhesion.
Transfections were performed using Lipofectamine RNAiMAX (Invitrogen). Transfection was carried out according to manufacturer's protocol. For rat MAPRE3 knockdown, PC12 cells or neurons were plated in growth medium without antibiotics at concentration of 10^4 cells/0.32 cm^2 such that they will be 30-50% confluent at the time of transfection. To obtain the highest transfection efficiency and low non-specific effects, siRNA transfection was performed in the following optimized conditions: 50 nM for neurons and 25 nM PC12 of each siRNA construct with 0.2 μl Lipofectamine RNAiMAX (Invitrogen) was added per well of the 96-well plate and scaled up for different 24 or 6-well plates, according to the manufacturer's instructions. The medium was changed one day after transfection. 48 and 72 hours later, cells were harvested to assay for gene knockdown at the RNA and protein levels.
The cells were incubated for 4 hrs at 37° C. 5% CO2. Survival was measured using the MTS assay.
Metabolic activity of cells was measured by the CellTiter 96® Aqueous Non-Radioactive Cell Proliferation kit in accordance with the manufacturer's instructions (Promega). The assay uses a colorimetric method for determining the number of viable cells employing a tetrazolium compound [3-(4,5-dimethylthiazol-2-yl)-5-(3-carboxymethoxyphenyl)-2-(4-sulfophenyl)-2H-tetrazolium, MTS] and an electron-coupling reagent, phenazine methosulfate (PMS). MTS is bio-reduced by cells into a formazan product that is detected at 490 nm. The conversion of MTS into the formazan form is accomplished by dehydrogenase enzymes found in metabolically active cells. Thus, the quantity of formazan product as measured by the amount of 490 nm absorbance is directly proportional to the number of living cells in culture (A. H. Cory, T. C. Owen, J. A. Barltrop, J. G. Cory, Cancer Commun 3, 207 (July, 1991)).

## NAPVSKIPQ (synthetic novel peptide core sequence SKIP derived from hybrid microtubule end-binding protein 3 (EB3)- binding microtubule plus-end tracking proteins (+TIPs) and activity-dependent neurotrophic factor (ADNF) active core site (NAP))
PC12 cells [1]
  protection against zinc-induced cell death: protected by the addition of SKIP, over a wide range of concentrations
PC12 cells [2]
  protection against cell death induced by zinc toxicity (MTS survival): provided protection against zinc toxicity; also recorded: significantly increased survival
PC12 cells [2]; listed as SKIP
  protection against cell death induced by zinc toxicity (MTS survival): significantly increased survival
